# Measurements published in patent US12139508B2, “Steroid derivative regulators, method for preparing the same, and uses thereof” (JIANGSU HANSOH PHARMACEUTICAL GROUP CO., LTD., priority 2018, dated 2024).
# Experiments:
# [1] = target: GABA-A receptor; assay: 35S-TBPS binding assay (GABAA receptor binding ability test); parameters: species or system Sprague-Dawley rat; details: rat cerebral cortex cell membrane, 5 μM GABA, 2 nM 35S-TBPS; read-out: 35S-TBPS bindng test: IC50 on inhibiting the TBPS binding activity
# Procedure, shortened: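 Rat (male Sprague-Dawley) cortical membranes in PBS were preincubated 5 min at 25° C with compound (from 1 μM, 3-fold, 8 points, 1% DMSO), then 5 μM GABA 5 min, then 2 nM ^35S-TBPS for 20 h at 4° C. Filter-bound counts gave % inhibition against DMSO and 10 μM P026-2 controls; IC50 by 4-parameter fit.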
# [2] = system: PTZ-induced epilepsy model in CD-1 mice; assay: In vivo pharmacodynamic test in the PTZ-induced epilepsy model in mice; details: dose 3 mpk p.o., PTZ 120 mg/kg s.c., 30 min observation
# Description: The PTZ-induced epilepsy model in CD-1 mice was established, and the antiepileptic effect of the compounds of Example 3, Example 60, Example 61 and Example 74 was evaluated using this model.
# 50 male CD-1 mice were purchased from Beijing Vital River Laboratory Animal Technology Co. Ltd. The test animals were adapted at the animal room in the third building of Shanghai ChemPartner Co., Ltd for 7 days before the test. The average body weight of the animals on the test day was 32.2±0.2 grams. Feeding environment: 5 animals/cage, room temperature 23±2° C., 12/12 hours of light and dark cycle, free acess to food and water.
# 4.2.1 Test Equipments • 1 ml sterile disposable syringe with needle (purchased from Zhejiang Kangdelai Medical Devices Co., Ltd.) • Pipette: Eppendorf Research Plus (100-1000 L) • Vortex mixer: Kylin-Bell Vortex 5 • Ultrasonic instrument: JL-360 ultrasonic cleaner • Balance: METTLER TOLEDO™ XS204 precision balance (note: METTLER TOLEDO™ is a kind of balance used in labs and industry) • Balance: METTLER TOLEDO™ XS6002S electronic balance (note: METTLER TOLEDO™ is a kind of balance used in labs and industry) • Plexiglass box: 25 cm length*15 cm width*15 cm height with one opaque side wall, custom made by Suzhou Fengshi Laboratory Animal Equipment Co., Ltd • 3-channel timer: Oregon/Model NO.WB-388. 4.2.2 Test Animal Grouping • 1) Vehicle/PTZ: 0.5% CMC-Na+1% Tween-80 (10 ml/kg, p.o.), administered 0.5 hr before the PTZ administration; PTZ ([…], s.c.), administered before the test; • 2) 3 mg/kg of the compounds of Examples/PTZ: the compounds of Example 3, Example 60, Example 61 and Example 74 (3 mg/kg, 10 ml/kg, p.o.), administered 0.5 hr before the PTZ administration; PTZ ([…], s.c.), administered before the test. 4.3 Experimental Procedures 4.3.1 Solvent Formulation 1) 0.5% CMC-Na+1% Tween-80 (Administration Volume: 10 mL/Kg):
# 4.4 Adaptation to the Environment
# The mice were randomly grouped, marked and weighed; 10 mice per group. The test compound was administered orally at an administration volume of 10 mL/kg 30-60 minutes before the PTZ administration.
# PTZ (120 mg/kg) was administrated subcutaneously before the test observation, and this time point was recorded as the observation start point; after the administration of PTZ, the animal was immediately placed in the observation box and observed for 30 minutes, and the followings were recorded: a) the incubation period of the first clonic seizure, b) the incubation period of the first generalized tonic seizure, c) the number of clonic seizures, d) the number of generalized tonic seizures, e) the time when the animal died.
# All measurement data were expressed as Mean±SEM, and analysed with Prism 6.0 statistical software.
smiles,measurement,setting,value
"C[C@@]1(O)CC[C@H]2[C@H](CC[C@@H]3[C@@H]2CC[C@@]2(C)[C@H]3[C@H](C3CC3)C[C@@H]2C(=O)Cn2ncnn2)C1 [Example 146, 1-((3R,5R,8R,9R,10S,13S,14S,15S,17S)-15-Cyclopropyl-3-hydroxy-3,13-dimethylhexadecahydro-1H-cyclopenta[a]phenanthren-17-yl)-2-(2H-tetrazol-2-yl)ethan-1-one]",IC50,[1],21.4 nM
"C[C@@]1(O)CC[C@H]2[C@H](CC[C@@H]3[C@@H]2CC[C@@]2(C)[C@H]3[C@H](C3CC3)C[C@@H]2C(=O)Cn2ccnn2)C1 [Example 145, 1-((3R,5R,8R,9R,10S,13S,14S,15S,17S)-15-Cyclopropyl-3-hydroxy-3,13-dimethylhexadecahydro-1H-cyclopenta[a]phenanthren-17-yl)-2-(1H-1,2,3-triazol-1-yl)ethan-1-one]",IC50,[1],16.9 nM
"C[C@@]1(O)CC[C@H]2[C@H](CC[C@@H]3[C@@H]2CC[C@]2(C)C(C(=O)Cn4cc(C#N)cn4)C[C@@H](C4CC4)[C@@H]32)C1 (stereo partly drawn) [Example 71, 1-(2-((3R,5R,8R,9R,10S,13S,14S,15S)-15-Cyclopropyl-3-hydroxy-3,13-dimethylhexadecahydro-1H-cyclopenta[a]phenanthren-17-yl)-2-oxoethyl)-1H-pyrazole-4-carbonitrile]",IC50,[1],7.5 nM
"CC[C@@H]1C[C@H](C(=O)Cn2ccc(C#N)n2)[C@@]2(C)CC[C@H]3[C@@H](CC[C@@H]4C[C@](C)(O)CC[C@@H]43)[C@H]12 [Example 137, 1-(2-((3R,5R,8R,9R,10S,13S,14S,15R,17S)-15-Ethyl-3-hydroxy-3,13-dimethylhexadecahydro-1H-cyclopenta[a]phenanthren-17-yl)-2-oxoethyl)-1H-pyrazole-3-carbonitrile]",IC50,[1],16.2 nM
"C[C@@]1(O)CC[C@H]2[C@H](CC[C@@H]3[C@@H]2CC[C@@]2(C)[C@H]3[C@@H]3C[C@@H]3[C@@H]2C(=O)Cn2cc(C(F)(F)F)cn2)C1 [Example 5, 1-((2R,4aS,4bR,6aS,7S,7aS,8aR,8bR,8cR,10aR)-2-Hydroxy-2,6a-dimethyloctadecahydrocyclopropa[4,5]cyclopenta[1,2-a]phenanthren-7-yl)-2-(4-(trifluoromethyl)-1H-pyrazol-1-yl)ethan-1-one]",IC50,[1],13.5 nM
"C[C@@H]1C[C@H](C(=O)Cn2cc(C#N)cn2)[C@@]2(C)CC[C@H]3[C@@H](CC[C@@H]4C[C@](C)(O)CC[C@@H]43)[C@H]12 [Example 13, 1-(2-((3R,5R,8R,9R,10S,13S,14S,15R)-3-Hydroxy-3,13,15-trimethylhexadecahydro-1H-cyclopenta[a]phenanthren-17-yl)-2-oxoethyl)-1H-pyrazole-4-carbonitrile]",IC50,[1],4.6 nM
"C[C@@]1(O)CC[C@H]2[C@H](CC[C@@H]3[C@@H]2CC[C@@]2(C)[C@H]3[C@@H]3C[C@@H]3[C@@H]2C(=O)Cn2ccc(C#N)n2)C1 [Example 3, 1-(2-((2R,4aS,4bR,6aS,7S,7aS,8aR,8bR,8cR,10aR)-2-hydroxy-2,6a-dimethyloctadecahydrocyclopropa[4,5]cyclopenta[1,2-a]phenanthren-7-yl)-2-oxoethyl)-1H-pyrazole-3-carbonitrile]",IC50,[1],14.9 nM
same,"Incubation period of the clonic seizure, Mean ± SEM",[2],902.9 ± 200.8 s
same,"Incubation period of the generalized tonic seizure, Mean",[2],1736.0 ± 63.2 s
same,Mortality rate,[2],10%
same,"Number of clonic seizures, Mean",[2],1.3 ± 0.3
same,"Number of generalized tonic seizures, Mean",[2],0.1 ± 0.1
same,"Time when the animal died, Mean",[2],1739.8 ± 60.2 s
"C[C@@H]1C[C@H](C(=O)Cn2ccc(C#N)n2)[C@@]2(C)CC[C@H]3[C@@H](CC[C@@H]4C[C@](C)(O)CC[C@@H]43)[C@H]12 [Example 60, 1-(2-((3R,5R,8R,9R,10S,13S,14S,15R,17S)-3-Hydroxy-3,13,15-trimethylhexadecahydro-1H-cyclopenta[a]phenanthren-17-yl)-2-oxoethyl)-1H-pyrazole-3-carbonitrile]",IC50,[1],8.2 nM
same,"Incubation period of the clonic seizure, Mean ± SEM",[2],1308.1 ± 170.1 s
same,"Incubation period of the generalized tonic seizure, Mean",[2],1800.0 ± 0.0 s
same,Mortality rate,[2],0%
same,"Number of clonic seizures, Mean",[2],0.5 ± 0.2
same,"Number of generalized tonic seizures, Mean",[2],0.0 ± 0.0
same,"Time when the animal died, Mean",[2],1800.0 ± 0.0 s
"C[C@@]1(O)CC[C@H]2[C@H](CC[C@@H]3[C@@H]2CC[C@@]2(C)[C@H]3[C@@H]3C[C@@H]3[C@@H]2C(=O)Cn2cc(C#N)cn2)C1 [Example 2, 1-(2-((2R,4aS,4bR,6aS,7S,7aS,8aR,8bR,8cR,10aR)-2-hydroxy-2,6a-dimethyloctadecahydrocyclopropa[4,5]cyclopenta[1,2-a]phenanthren-7-yl)-2-oxoethyl)-1H-pyrazole-4-carbonitrile]",IC50,[1],24.3 nM
